Experiments:
[1] = molecular target: T1, E. coli TEM-1 β-lactamase (Escherichia coli, UniProt P62593); test: Drug screening: E166Cf fluorescence in presence of bacterial β-lactamase culture; type: biochemical; parameters: key: −: Decline in fluorescence signal (presence of beta-lactam hydrolysis); +: No decline in fluorescence signal (absence of beta-lactam hydrolysis); settings: E. coli TEM-1 culture, undiluted; antibiotic 1.0×10^−4 M; E166Cf 1.2×10^−7 M
T1 construct: made in house; host or cells: E. coli BL21(DE3); whole overnight culture used undiluted, not purified
T1 sequence (P62593 24-286 limits assumed): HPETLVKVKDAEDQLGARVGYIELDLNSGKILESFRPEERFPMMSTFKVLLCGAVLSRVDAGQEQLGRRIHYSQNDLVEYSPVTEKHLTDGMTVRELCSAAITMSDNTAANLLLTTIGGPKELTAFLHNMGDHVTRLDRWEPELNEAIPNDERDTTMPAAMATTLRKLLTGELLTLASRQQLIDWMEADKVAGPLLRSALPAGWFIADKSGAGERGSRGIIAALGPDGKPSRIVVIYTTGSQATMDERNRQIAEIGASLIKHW
Description: (§1) The use of the E166Cf enzyme in screening bacterial β-lactamases against various β-lactam antibiotics was investigated. The principle of our method is that when both E166Cf and bacterial β-lactamase are incubated with ‘β-lactamase-unstable’ antibiotics, the fluorescence of the E166Cf enzyme will be suppressed because of the greater catalytic efficiency of the bacterial enzyme. In contrast, when bacterial β-lactamases are screened against ‘β-lactamase-resistant’ antibiotics, the fluorescence of the E166Cf enzyme will be enhanced because of the poor hydrolytic activity of the bacterial enzyme. Thus, any β-lactam antibiotic that causes the labeled enzyme to increase its fluorescence intensity in the presence of bacterial β-lactamases can be used in clinical treatments.
The TEM-1 β-lactamase was expressed in E. coli. BL21(DE3). Preparation of the TEM-1 β-lactamase was performed as follows. A bacterial strain was streaked on an agar plate containing 100 μg/ml ampicillin, and the plate was incubated at 37° C. for 24 h. A single bacterial colony from the plate was inoculated into 100 ml of sterilized LB broth (28 g/l) which was then incubated at 37° C. with shaking at 280 rpm overnight. After overnight incubation, the bacterial culture was harvested and stored at −20° C.
(§2) Fluorescence measurements of the E166Cf enzyme in the presence of bacterial cultures and β-lactam antibiotics were performed on a FLUOstar microplate reader (BMG Labtechnologies) equipped with two sample injectors. Excitation and emission filters of 485 and 520 nm respectively were used. For B. cereus penPC β-lactamase, B. licheniformis penP β-lactamase and B. cereus β-lactamase II, the labeled enzymes were mixed with the bacterial cultures, and the mixtures were made up to 300 μl with 50 mM phosphate buffer (pH 7.0) in a 96-well microtiter plate (Corning Costar). For the purpose of comparison, B. subtilis cultures, which produced no β-lactamase, were set up as negative controls. For E. coli. TEM-1 β-lactamase, the labeled enzymes were mixed with the bacterial cultures without dilution. E. coli. cultures, which produced no β-lactamase, were set up as negative controls for comparison. The antibiotics were then added to the bacterial samples by the injectors.
(§3) The results from the time-resolved fluorescence measurements of the labeled enzyme (1.2×10^−7 M) in the presence of various bacterial cultures and β-lactam antibiotics (1.0×10^−4 M) are shown in FIGS. 23 to 26.

E166Cf enzyme [2] = molecular target: T2, E166Cf enzyme (Bacillus cereus, UniProt P00809, E185C); test: Circular dichroism assay of antibiotic hydrolysis by E166Cf; type: biochemical; settings: 1.0×10^−4 M antibiotic, E166Cf 1.2×10^−7 M, one hour incubation
T2 construct: made in house; host or cells: B. subtilis 1A304 (φ105MU331); then labelled chemically
T2 sequence (P00809 28-306 E185C): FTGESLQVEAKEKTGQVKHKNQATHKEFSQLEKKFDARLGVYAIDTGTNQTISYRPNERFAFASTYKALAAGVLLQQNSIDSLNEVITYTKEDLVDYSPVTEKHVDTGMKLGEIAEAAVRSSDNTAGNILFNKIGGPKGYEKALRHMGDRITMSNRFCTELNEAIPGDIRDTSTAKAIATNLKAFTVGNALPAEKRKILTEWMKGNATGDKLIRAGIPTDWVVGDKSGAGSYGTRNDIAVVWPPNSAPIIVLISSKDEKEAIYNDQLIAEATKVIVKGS
Text: The absence of a declining fluorescence signal for cefuroxime, cefoxitin and moxalactam can be ascribed to the poor hydrolytic activities of the E166Cf enzyme towards these antibiotics (very low k2 and/or k3) (FIG. 14). As a result, the cephalosporin substrates stay in the active sites. To verify this, the activities of the labeled enzyme with cefuroxime, cefoxitin and moxalactam as substrates were monitored by circular dichroism (CD) spectropolarimetry. […] Therefore, by measuring the CD signals of cefuroxime, cefoxitin and moxalactam (1.0×10^−4 M) at 258, 264 and 265 nm respectively as a function of time in the presence of E166Cf enzyme (1.2×10^−7 M), the hydrolytic activities of the labeled enzyme towards these antibiotics can be monitored.

E166Cf enzyme [3] = molecular target: T2, E166Cf enzyme; test: Time-resolved fluorescence of E166Cf enzyme with penicillins and cephalosporins; type: biochemical; settings: E166Cf 1.2×10^−7 M, 50 mM phosphate buffer pH 7.0; up to one hour
Description: Fluorescence measurements of the E166Cf enzyme in the presence of penicillin G, penicillin V, ampicillin, cefuroxime, cefoxitin and moxalactam were performed on a Perkin Elmer LS50B spectrofluorometer. For time-resolved fluorescence measurement, excitation and emission wavelengths were set at 494 and 515 nm respectively. Both excitation and emission slit widths were set at 5 nm. All fluorescence measurements were performed at room temperature.
With penicillin G as substrate, the fluorescence signal of the E166Cf enzyme (1.2×10^−7 M) at 515 nm in 50 mM phosphate buffer (pH 7.0) increases as a function of the antibiotic concentration (FIG. 4). The time-resolved fluorescence signals of the E166Cf enzyme at 515 nm were also measured with various concentrations of penicillin G (FIG. 5). At low antibiotic concentration (1.0×10^−7 and 1.0×10^−6 M), the fluorescence intensity of the E166Cf enzyme increases gradually and then declines. At high antibiotic concentration (1.0×10^−5 and 1.0×10^−4 M), the fluorescence signal increases instantaneously and levels off to a plateau. The fluorescence signal stays at the plateau for a certain length of time and then declines afterwards. Similar results were obtained with penicillin V and ampicillin (FIGS. 6 and 7).
With cefuroxime, cefoxitin and moxalactam as substrates, the fluorescence intensities of the E166Cf enzyme (1.2×10^−7 M) at 515 nm in 50 mM phosphate buffer (pH 7.0) also increase as a function of antibiotic concentration (FIGS. 8 to 10).
(§4) At high substrate concentration (1.0×10^−5 and 1.0×10^−4 M), the penicillin substrates rapidly occupy the active sites to form the ES complexes, thus switching on the fluorescence of the fluorescein labels instantaneously. […] This can be verified by the fact that the ‘plateau time’ (8 and 22 min for 1.0×10^−5 and 1.0×10^−4 M penicillin G respectively) is consistent with the ‘substrate hydrolysis time’ determined by spectrophotometric assays (7 and 20 min for 1.0×10^−5 and 1.0×10^−4 M penicillin G respectively). When most of the penicillin substrates have been hydrolyzed to carboxylic acids, the fluorescence signal of the labeled enzyme will decline subsequently.

[4] = molecular target: T3, B. cereus penPC β-lactamase (Bacillus cereus, UniProt P00809); test: Drug screening: E166Cf fluorescence in presence of bacterial β-lactamase culture; type: biochemical; parameters: key: −: Decline in fluorescence signal (presence of beta-lactam hydrolysis); +: No decline in fluorescence signal (absence of beta-lactam hydrolysis); settings: antibiotic 1.0×10^−4 M, E166Cf 1.2×10^−7 M
T3 construct: made in house; host or cells: B. subtilis 1A304 (φ105MU331); whole culture used, not purified
T3 sequence (P00809 28-306): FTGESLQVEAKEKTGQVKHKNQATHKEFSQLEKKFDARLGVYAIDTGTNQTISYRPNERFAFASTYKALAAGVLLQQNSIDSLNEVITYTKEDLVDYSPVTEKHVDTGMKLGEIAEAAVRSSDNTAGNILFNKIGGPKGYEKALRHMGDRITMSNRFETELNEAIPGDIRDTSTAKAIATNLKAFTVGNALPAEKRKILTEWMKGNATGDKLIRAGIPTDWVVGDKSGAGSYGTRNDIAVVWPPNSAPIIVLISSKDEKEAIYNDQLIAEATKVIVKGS
Description: as §1
(§5) The β-lactamase II, penPC β-lactamase and penP β-lactamase were expressed in B. subtilis 1A304 (φ105MU331). These enzymes were prepared according to the procedures described previously (Reference 7: Thomwell, S. J. East, A. K., Errington, J. An efficient expression and secretion system based on Bacillus subtilis phage phi 105 and its uses for the production for B. cereus β-lactamase I. (1993) Gene 133, 47-53) with slight modifications. A bacterial strain was streaked on an agar plate containing 5 μg/ml chloramphenicol, and the plate was incubated at 37° C. for 24 h. A single bacterial colony from the agar plate was inoculated into 100 ml of sterilized BHY medium (37 g/l brain heart infusion and 5 g/l yeast extract) which was then incubated at 37° C. with shaking at 300 rpm overnight. About 7 ml of overnight inoculum was added to a baffled conical flask containing 100 ml of sterilized BHY medium. The inoculated medium was incubated at 37° C. with shaking at 300 rpm. When the optical density of the bacterial culture at 600 nm reached 3.5 to 4.0, the bacterial culture was heated in a water bath at 51° C. for 5 min. Afterwards, the bacterial culture was incubated at 37° C. with shaking at 300 rpm for a further 6 h. The bacterial culture was then harvested and stored at −20° C.
as §2, §3

B. cereus β-lactamase II = molecular target: T4, B. cereus β-lactamase II (Bacillus cereus, UniProt P04190); test: as above; type: biochemical; parameters: key: −: Decline in fluorescence signal (presence of beta-lactam hydrolysis); +: No decline in fluorescence signal (absence of beta-lactam hydrolysis); settings: antibiotic 1.0×10^−4 M, E166Cf 1.2×10^−7 M
T4 construct: made in house; host or cells: B. subtilis 1A304 (φ105MU331); whole culture used, not purified
T4 sequence (P04190 31-257): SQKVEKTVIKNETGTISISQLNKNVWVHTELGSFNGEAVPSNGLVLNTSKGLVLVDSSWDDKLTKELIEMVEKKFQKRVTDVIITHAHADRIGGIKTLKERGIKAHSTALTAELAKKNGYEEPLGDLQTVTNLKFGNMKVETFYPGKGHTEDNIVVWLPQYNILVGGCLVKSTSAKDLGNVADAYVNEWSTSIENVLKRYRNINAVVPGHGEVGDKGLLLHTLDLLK
Description: as §1, §5, §2, §3

[5] = molecular target: T5, B. licheniformis penP β-lactamase (Bacillus licheniformis, UniProt P00808); test: as above; type: biochemical; parameters: key: −: Decline in fluorescence signal (presence of beta-lactam hydrolysis); +: No decline in fluorescence signal (absence of beta-lactam hydrolysis); settings: antibiotic 1.0×10^−4 M, E166Cf 1.2×10^−7 M
T5 construct: made in house; host or cells: B. subtilis 1A304 (φ105MU331); whole culture used, not purified
T5 sequence (P00808 27-307): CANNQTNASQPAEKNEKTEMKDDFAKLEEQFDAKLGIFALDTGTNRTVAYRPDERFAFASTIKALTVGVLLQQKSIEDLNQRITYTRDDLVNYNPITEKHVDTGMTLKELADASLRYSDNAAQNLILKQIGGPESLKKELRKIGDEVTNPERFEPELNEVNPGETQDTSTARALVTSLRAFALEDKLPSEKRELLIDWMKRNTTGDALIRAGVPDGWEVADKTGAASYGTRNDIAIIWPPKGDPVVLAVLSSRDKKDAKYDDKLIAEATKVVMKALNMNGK
Description: as §1, §5, §2, §3

E166Cf enzyme [6] = molecular target: T2, E166Cf enzyme; test: Time-resolved fluorescence of E166Cf enzyme with β-lactamase inhibitors; type: biochemical; settings: 1.0×10^−3 M inhibitor; E166Cf 1.2×10^−7 M, 50 mM phosphate buffer pH 7.0
Description: Time-resolved fluorescence measurements of the E166Cf enzyme in the presence of sulbactam and clavulanate were performed on a Perkin Elmer LS50B spectrofluorometer. The excitation and emission wavelengths were set at 494 and 515 nm respectively. Both excitation and emission slit widths were set at 5 nm. All fluorescence measurements were performed at room temperature.
The fluorescence signals of the labeled enzyme (1.2×10^−7 M) obtained with sulbactam (1.0×10^−4 M) and clavulanate (1.0×10^−3 M) in 50 mM phosphate buffer (pH 7.0) are entirely different (FIGS. 18 and 19).

[7] = molecular target: T6, E166Cf (fluorescein-labeled E166C mutant of β-lactamase I) (Bacillus cereus, UniProt P00809, E185C); test: Spectrophotometric substrate hydrolysis, steady-state kinetics; type: biochemical; settings: E166Cf; 50 mM potassium phosphate buffer pH 7.0, 20° C.
T6 construct: made in house; host or cells: B. subtilis 1A304 (φ105MU331); then labelled chemically
T6 sequence (P00809 28-306 E185C): T2 sequence (P00809 28-306 E185C)
Description: (§6) The hydrolytic activities of the wild-type β-lactamase I, E166C and E166Cf mutants towards penicillin G, penicillin V and ampicillin (Sigma) were monitored by the spectrophotometric method. The spectrophotometric measurements were performed on a Perkin Elmer Lambda Bio20 UV/Vis spectrometer. Substrate hydrolysis was monitored at a fixed wavelength: 235 nm for ampicillin, 232 nm for penicillin G and penicillin V. The initial rate of substrate hydrolysis occurring within 5 min was determined in duplicate at each of 6 different substrate concentrations in 50 mM potassium phosphate buffer (pH 7.0) at 20° C. The initial rates determined were then treated as described in Reference 5 to calculate the Michaelis constants (Km) and turnover numbers (kcat) using non-linear regression analysis (equation 1):
(§7) [formula] where v is the initial rate of substrate hydrolysis, Vmax the maximum rate of reaction, [S] the initial substrate concentration, Km the Michaelis constant and kcat=Vmax/[Enzyme].
(§8) The measured steady-state kinetic parameters for hydrolysis of penicillin G, penicillin V and ampicillin by the wild-type β-lactamase I, E166C and E166Cf mutants are summarized in Table 1.
as §4

[8] = molecular target: T7, E166C mutant of β-lactamase I (Bacillus cereus, UniProt P00809, E185C); test: as above; type: biochemical; settings: 50 mM potassium phosphate buffer pH 7.0, 20° C.
T7 construct: made in house; host or cells: B. subtilis 1A304 (φ105MU331)
T7 sequence (P00809 28-306 E185C): T2 sequence (P00809 28-306 E185C)
Description: as §6, §7, §8

wild-type β-lactamase I = molecular target: T8, wild-type β-lactamase I (Bacillus cereus, UniProt P00809); test: as above; type: biochemical; settings: 50 mM potassium phosphate buffer pH 7.0, 20° C.
T8 construct: made in house; host or cells: B. subtilis 1A304 (φ105MU331)
T8 sequence (P00809 28-306): as the sequence (P00809 28-306) above
Description: as §6, §7, §8

[9] = system: CC1(C)S[C@@H]2[C@H](NC(=O)[C@H](N)c3ccccc3)C(=O)N2[C@H]1C(=O)O; test: as above; type: biochemical, Bacillus cereus; settings: other: Wild-type, 50 mM potassium phosphate buffer pH 7.0, 20° C.
Description: as §6, §7, §8

Molecule | fluorescence signal of E166Cf (beta-lactam hydrolysis) [1] | change in CD signal of antibiotic (hydrolysis by E166Cf) (E166Cf enzyme [2]) | time course of E166Cf fluorescence signal at 515 nm (E166Cf enzyme [3]) | fluorescence signal of E166Cf (beta-lactam hydrolysis) [4] | fluorescence signal of E166Cf (beta-lactam hydrolysis) (B. cereus β-lactamase II) | fluorescence signal of E166Cf (beta-lactam hydrolysis) [5] | other results
CO[C@@]1(NC(=O)C(C(=O)O)c2ccc(O)cc2)C(=O)N2C(C(=O)O)=C(CSc3nnnn3C)CO[C@@H]21 (some centres unmarked) [Moxalactam, moxalactam] | + | no significant changes in the CD signals | no subsequent decline in intensity was observed | + | + | + | 
O=C(O)[C@H]1/C(=C/CO)O[C@@H]2CC(=O)N21 [clavulanate] |  |  |  |  |  |  | time course of E166Cf fluorescence signal at 515 nm (E166Cf enzyme [6]): instantaneous increase in fluorescence signal which declines rapidly within 200 s and then levels off to a plateau
CO/N=C(\C(=O)N[C@@H]1C(=O)N2C(C(=O)O)=C(COC(N)=O)CS[C@H]12)c1ccco1 [Cefuroxime, cefuroxime] | + | no significant changes in the CD signals | no subsequent decline in intensity was observed | + | − | − | 
CC1(C)S[C@@H]2[C@H](NC(=O)COc3ccccc3)C(=O)N2[C@H]1C(=O)O [Penicillin V, penicillin V] | − |  |  | − | − | − | Km [7]: 117 ± 10 µM; kcat [7]: 2.97 ± 0.06 s⁻¹; Km [8]: 71 ± 6 µM; kcat [8]: 1.53 ± 0.03 s⁻¹; Km (wild-type β-lactamase I): 52 ± 4 µM; kcat (wild-type β-lactamase I): 2109 ± 4 s⁻¹
wild-type β-lactamase I (Bacillus cereus) |  |  |  |  |  |  | Km [9]: 142 ± 8 µM; kcat [9]: 5210 ± 275 s⁻¹; kcat/Km [9]: 3.7e+07 ± 4e+06 M⁻¹ s⁻¹
CO[C@@]1(NC(=O)Cc2cccs2)C(=O)N2C(C(=O)O)=C(COC(N)=O)CS[C@@H]21 [Cefoxitin, cefoxitin] | + | no significant changes in the CD signals | no subsequent decline in intensity was observed | + | + | + | 
